In PubChem BioAssay (NCI):
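Abbreviation: GI50, concentration required for 50% inhibition of growth. The concentration for full growth arrest is given as TGI.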

Legend:
Assay in all cases: DTP human tumour cell line panel, 384-well format
786-0 renal = system: 786-0 renal
A498 renal = system: A498 renal
A549 NSCLC = system: A549 NSCLC
ACHN renal = system: ACHN renal
BT-549 breast = system: BT-549 breast
CAKI-1 renal = system: CAKI-1 renal
COLO 205 colon = system: COLO 205 colon
DU-145 prostate = system: DU-145 prostate
EKVX NSCLC = system: EKVX NSCLC
HCT-15 colon = system: HCT-15 colon
HL-60(TB) leukemia = system: HL-60(TB) leukemia
HOP-62 NSCLC = system: HOP-62 NSCLC
HS 578T breast = system: HS 578T breast
HT29 colon = system: HT29 colon
IGROV1 ovarian = system: IGROV1 ovarian
K-562 leukemia = system: K-562 leukemia
KM12 colon = system: KM12 colon
M14 melanoma = system: M14 melanoma
MALME-3M melanoma = system: MALME-3M melanoma
MCF7 breast = system: MCF7 breast
MDA-MB-231 breast = system: MDA-MB-231 breast
MDA-MB-435 melanoma = system: MDA-MB-435 melanoma
MDA-MB-468 breast = system: MDA-MB-468 breast
MOLT-4 leukemia = system: MOLT-4 leukemia
NCI-H226 lung = system: NCI-H226 lung
NCI-H23 lung = system: NCI-H23 lung

Cc1cccc2nc3cccc(C(=O)NCCNCCNCCNC(=O)c4cccc5nc6cccc(C)c6nc45)c3nc12
GI50 ([…]-0 renal): < 10 nM | TGI (786-0 renal): 6780 nM | GI50 (A498 renal): < 10 nM | TGI (A498 renal): 2230 nM | GI50 (A549 NSCLC): < 10 nM | TGI (A549 NSCLC): 1510 nM | GI50 (ACHN renal): < 10 nM | TGI (ACHN renal): 1960 nM | GI50 (BT-549 breast): 1320 nM | TGI (BT-549 breast): 2780 nM | GI50 (CAKI-1 renal): < 10 nM | TGI (CAKI-1 renal): 3140 nM | GI50 (COLO 205 colon): < 10 nM | TGI (COLO 205 colon): 1820 nM | GI50 (DU-145 prostate): < 10 nM | TGI (DU-145 prostate): 208 nM | GI50 (EKVX NSCLC): 1230 nM | TGI (EKVX NSCLC): 5680 nM | GI50 (HCT-15 colon): 21.2 nM | TGI (HCT-15 colon): > 100000 nM | GI50 (HL-60(TB) leukemia): < 10 nM | TGI (HL-60(TB) leukemia): 154 nM | GI50 (HOP-62 NSCLC): < 10 nM | TGI (HOP-62 NSCLC): 1390 nM | GI50 (HS 578T breast): 79.6 nM | TGI (HS 578T breast): 265 nM | GI50 (HT29 colon): < 10 nM | TGI (HT29 colon): 234 nM | GI50 (IGROV1 ovarian): < 10 nM | TGI (IGROV1 ovarian): 47700 nM | GI50 (K-562 leukemia): < 10 nM | TGI (K-562 leukemia): 1270 nM | GI50 (KM12 colon): < 10 nM | TGI (KM12 colon): 109 nM | GI50 (M14 melanoma): < 10 nM | TGI (M14 melanoma): 751 nM | GI50 (MALME-3M melanoma): 107 nM | TGI (MALME-3M melanoma): 1900 nM | GI50 (MCF7 breast): < 10 nM | TGI (MCF7 breast): 31200 nM | GI50 (MDA-MB-231 breast): 11.5 nM | TGI (MDA-MB-231 breast): 628 nM | GI50 (MDA-MB-435 melanoma): 133 nM | TGI (MDA-MB-435 melanoma): 1900 nM | GI50 (MDA-MB-468 breast): < 10 nM | TGI (MDA-MB-468 breast): 1210 nM | GI50 (MOLT-4 leukemia): < 10 nM | GI50 (NCI-H226 lung): 124 nM | TGI (NCI-H226 lung): 1190 nM | GI50 (NCI-H23 lung): 179 nM | TGI (NCI-H23 lung): 1760 nM
